From BindingDB's records for patent US12226414 (Suzhou Zanrong Pharma, 2025) come the findings set out here.

Usually IC50 stands for the concentration needed to halve the response being measured.

This assay deals with Serine/threonine-protein kinase ATR (Homo sapiens, UniProt Q13535). Briefly: ATR Biochemical Potency Assay. The protocol: ATR enzyme was made by ChemPartner (batch: CP-ATR-20161102-M2). 2× enzyme solutions were prepared in 1× kinase base buffer. 10 μl of 2× enzyme solution (final concentration: 2.5 nM) was added to each well of the 384-well assay plate containing 60 nl compound in each well. The plate was incubated at room temperature for 10 minutes. 2× peptide solutions were prepared with FAM-labeled peptide and ATP in the 1× kinase base buffer. 10 μl of 2× peptide solution was added to each well of the 384-well assay plate, which was incubated at 28° C. for 240 min. 40 μl of stop buffer was added to stop reaction. Data were collected by Caliper.
Chain of Serine/threonine-protein kinase ATR (Q13535 whole entry): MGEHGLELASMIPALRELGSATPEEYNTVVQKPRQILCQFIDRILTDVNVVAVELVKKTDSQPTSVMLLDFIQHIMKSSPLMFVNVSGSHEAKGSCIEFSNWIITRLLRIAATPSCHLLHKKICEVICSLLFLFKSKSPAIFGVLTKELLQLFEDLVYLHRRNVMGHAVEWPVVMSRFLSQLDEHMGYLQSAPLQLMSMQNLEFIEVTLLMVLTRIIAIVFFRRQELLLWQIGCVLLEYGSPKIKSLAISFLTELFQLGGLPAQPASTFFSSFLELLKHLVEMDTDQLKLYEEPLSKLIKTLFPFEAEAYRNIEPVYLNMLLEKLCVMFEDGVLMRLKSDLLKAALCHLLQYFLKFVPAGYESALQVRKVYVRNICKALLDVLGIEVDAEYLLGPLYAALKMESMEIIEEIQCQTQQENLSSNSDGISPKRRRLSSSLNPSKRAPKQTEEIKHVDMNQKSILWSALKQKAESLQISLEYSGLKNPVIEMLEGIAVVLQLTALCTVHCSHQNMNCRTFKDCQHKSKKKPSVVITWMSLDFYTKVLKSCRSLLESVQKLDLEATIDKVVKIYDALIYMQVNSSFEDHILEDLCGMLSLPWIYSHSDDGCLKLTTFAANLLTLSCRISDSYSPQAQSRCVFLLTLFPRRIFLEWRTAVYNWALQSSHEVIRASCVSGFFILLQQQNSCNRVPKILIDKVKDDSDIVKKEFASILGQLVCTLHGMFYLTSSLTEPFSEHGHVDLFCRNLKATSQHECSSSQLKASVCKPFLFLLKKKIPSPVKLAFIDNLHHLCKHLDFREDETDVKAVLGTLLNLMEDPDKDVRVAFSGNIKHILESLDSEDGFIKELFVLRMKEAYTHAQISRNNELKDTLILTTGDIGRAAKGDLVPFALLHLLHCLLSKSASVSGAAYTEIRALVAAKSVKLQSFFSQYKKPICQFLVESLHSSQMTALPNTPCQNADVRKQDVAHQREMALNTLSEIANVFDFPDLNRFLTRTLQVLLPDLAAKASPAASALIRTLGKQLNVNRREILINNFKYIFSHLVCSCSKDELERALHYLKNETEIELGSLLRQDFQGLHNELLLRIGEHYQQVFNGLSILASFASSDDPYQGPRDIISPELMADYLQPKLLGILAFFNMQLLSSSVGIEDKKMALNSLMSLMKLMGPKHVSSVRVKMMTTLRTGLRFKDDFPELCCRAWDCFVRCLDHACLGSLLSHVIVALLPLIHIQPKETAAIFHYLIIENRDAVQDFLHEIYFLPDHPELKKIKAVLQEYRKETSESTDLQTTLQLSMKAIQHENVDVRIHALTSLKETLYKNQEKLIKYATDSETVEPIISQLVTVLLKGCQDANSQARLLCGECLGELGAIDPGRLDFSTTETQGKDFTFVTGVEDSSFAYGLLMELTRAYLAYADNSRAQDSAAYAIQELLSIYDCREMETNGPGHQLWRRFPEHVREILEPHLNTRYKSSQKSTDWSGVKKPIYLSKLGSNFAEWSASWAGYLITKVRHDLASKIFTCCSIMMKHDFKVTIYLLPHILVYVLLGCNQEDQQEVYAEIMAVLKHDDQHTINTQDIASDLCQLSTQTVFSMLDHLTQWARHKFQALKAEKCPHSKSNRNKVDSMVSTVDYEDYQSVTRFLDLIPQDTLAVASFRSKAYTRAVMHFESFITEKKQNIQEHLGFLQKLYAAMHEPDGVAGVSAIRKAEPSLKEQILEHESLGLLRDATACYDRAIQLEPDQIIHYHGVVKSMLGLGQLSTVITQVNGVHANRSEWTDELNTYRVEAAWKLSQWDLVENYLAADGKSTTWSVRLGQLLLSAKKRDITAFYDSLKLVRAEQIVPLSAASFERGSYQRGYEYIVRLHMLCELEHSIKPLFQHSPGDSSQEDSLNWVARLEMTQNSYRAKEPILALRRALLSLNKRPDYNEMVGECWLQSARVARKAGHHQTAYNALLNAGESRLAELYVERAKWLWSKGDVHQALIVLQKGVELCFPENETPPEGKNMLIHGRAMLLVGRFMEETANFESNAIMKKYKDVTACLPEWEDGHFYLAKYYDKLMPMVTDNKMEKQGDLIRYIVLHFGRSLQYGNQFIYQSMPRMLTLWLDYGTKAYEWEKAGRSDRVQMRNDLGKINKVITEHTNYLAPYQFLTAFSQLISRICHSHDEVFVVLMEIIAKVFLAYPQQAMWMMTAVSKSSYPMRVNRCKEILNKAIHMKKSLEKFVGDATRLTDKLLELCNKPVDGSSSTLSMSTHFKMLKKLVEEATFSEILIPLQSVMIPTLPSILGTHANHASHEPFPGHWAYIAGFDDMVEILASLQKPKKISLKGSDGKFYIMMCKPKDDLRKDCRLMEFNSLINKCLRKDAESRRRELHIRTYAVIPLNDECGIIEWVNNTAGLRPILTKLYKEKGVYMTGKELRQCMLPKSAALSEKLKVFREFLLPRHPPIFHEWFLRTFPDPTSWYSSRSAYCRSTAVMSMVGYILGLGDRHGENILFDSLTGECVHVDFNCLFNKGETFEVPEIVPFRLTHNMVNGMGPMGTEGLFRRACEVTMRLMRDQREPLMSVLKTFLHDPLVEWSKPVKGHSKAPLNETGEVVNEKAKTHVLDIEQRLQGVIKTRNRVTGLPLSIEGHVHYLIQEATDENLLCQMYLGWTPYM

Take `CC(C)n1c(=O)n(C)c2nnc3cc(F)c(-c4ccc(OCCCN5CC[C@H](F)C5)nc4)cc3c21` [US12226414, Example 14]: the IC50 is above 10 µM.

Consider `CC(C)n1c(=O)n(C)c2nnc3cc(F)c(-c4ccc(OCCCN5CC[C@@H](F)C5)nc4)cc3c21` [US12226414, Example 15], for which the 50% inhibitory concentration (IC50) was above 10 µM.
